Measurements from patent publication US20220315624A1, “THIOSTREPTON ANALOGS AND METHODS OF MAKING AND USING SAME” (YALE UNIVERSITY, priority 2019, published 2022).
≈ marks a conversion by molar mass, not a printed value.

What was measured:
[1] = Aqueous solubility analysis in MOPS buffer; format: physicochemical; conditions: aqueous 10 mM MOPS buffer, thermodynamic from solid; after 24 hours in 10 mM aqueous MOPS buffer, pH 7.2
Experimental: A 2 dram vial was loaded with ˜0.5 mg of a thiostrepton derivative and suspended in ˜4 mL of aqueous 10 mM MOPS buffer (pKa 7.2). The suspension was stirred vigorously for 24 h to ensure equilibration, then filtered through a […] centrifuge filtration unit. A 3.0 mL aliquot was concentrated, and the dried residue was diluted with 0.30 mL of 1:1 1,4-dioxane/H2O (10× original concentration necessitated by detection limits). The total UV absorbance (200-300 nm) was measured in triplicate by UPLC runs with a photodiode array detector. A calibration curve for each compound was created using data points from 3 trials each of concentrations in 1:1 1,4-dioxane/H2O ranging from […]. These concentrations were plotted against their respective average absorbances. The experimental concentration of each compound was calculated by dividing the found μg/mL value by the residue concentration factor of 10 to yield the actual solubility value.

E. coli ATCC 25922 = test: MIC broth microdilution; format: cell-based; conditions: Escherichia coli, ATCC25922; E. coli ATCC 25922; CAMHB; read-out: MIC
Experimental: (§1) Twenty-four test agents were shipped to Micromyx and stored at −20° C. until assayed. The compounds were dissolved in 100% DMSO at 6.46 mg/mL prior to testing. Comparator drugs were supplied by Micromyx and were handled as described below:
(§2) The test organisms for the assay were recent clinical isolates or reference strains acquired from the American Type Culture Collection (ATCC; Manassas, Va.). Upon receipt, the isolates were streaked onto Trypticase Soy Agar II+5% sheep blood (TSAB). Colonies were harvested from the plates and a cell suspension was prepared in Trypticase Soy Broth containing cryoprotectant. Aliquots were then frozen at −80° C. Prior to the assay, the frozen seeds of all bacterial isolates to be tested were thawed and streaked for isolation onto TSAB (BD/BBL, Sparks, Md.; Lot No. 9011894), and were incubated overnight at 35° C.
(§3) The test medium for all isolates was cation-adjusted Mueller Hinton broth (CAMHB; BD/BBL; Lot No. 8190586). CAMHB (Cation Adjusted Mueller Hinton Broth) was supplemented with 3% (v/v) lysed horse blood (LHB; Hemostat, Dixon, Calif.; Lot No. 474990) for the testing of streptococci.
(§4) MIC values were determined using a broth microdilution method as recommended by CLSI. Automated liquid handlers (Multidrop 384, Labsystems, Helsinki, Finland; Biomek 2000 and Biomek F/X, Beckman Coulter, Fullerton Calif.) were used to conduct serial dilutions and make liquid transfers.
(§5) The wells of standard 96-well microdilution plates (Costar 3795, Corning Inc., Corning, N.Y.) were filled with 150 μL of the appropriate diluent in columns 2-12 on the Multidrop 384 (DMSO for the thiostrepton analogs, deionized H2O for vancomycin and ceftazidime). These plates were used to prepare the drug “mother plate” which provided the serial drug dilutions for the replicate “daughter plates”. The compounds (300 μL) were dispensed at 101× the highest concentration to be tested into the appropriate row of the “mother plate”. The Biomek 2000 was used to transfer 150 μL of each stock solution from the wells in Column 1 of the mother plate to make ten subsequent 2-fold serial dilutions. The wells of Column 12 contained no drug and served as the organism growth control wells. The daughter plates were loaded with 190 μL of test medium using the Multidrop 384.
(§6) The daughter plates were prepared on the Biomek F/X instrument which transferred […] of drug solution from each well of the mother plate to each corresponding well of each daughter plate in a single step. The wells of the daughter plates ultimately contained 190 μL of media, 2 μL of drug solution, and 10 μL of inoculum prepared as described below. The final concentration of DMSO (if used as a solvent) in the test well was 1%.
(§7) A standardized inoculum of each organism was prepared per CLSI methods. A suspension of organisms from a fresh plate was prepared in CAMHB to equal the turbidity of a 0.5 McFarland standard. The suspensions were diluted 1:20 in CAMHB, or in the case of streptococci CAMHB with LHB. The inoculum for each organism was dispensed into sterile reservoirs divided by length (Beckman Coulter), and the Biomek 2000 was used to inoculate the plates. Daughter plates were placed on the Biomek 2000 work surface reversed so that inoculation took place from low to high drug concentration. The Biomek 2000 delivered 10 μL of standardized inoculum into each well. These dilutions yielded a final cell concentration in the daughter plates of approximately 5.0×10^5 CFU/mL.
(§8) Plates were stacked 3 high, covered with a lid on the top plate, placed in plastic bags, and incubated at 35° C. for 16-20 hr for all organisms except streptococci which were incubated for 20-24 hr. Following incubation, the microplates were removed from the incubator and viewed from the bottom using a plate viewer. The MIC was read and recorded as the lowest concentration of drug that inhibited visible growth of the organism. […]

[2] = tested on: E. faecalis ATCC 29212 VSE; test: MIC broth microdilution; format: cell-based; conditions: Enterococcus faecalis, ATCC29212; E. faecalis ATCC 29212 VSE; CAMHB; read-out: MIC
Experimental: as §1, §2, §3, §4, §5, §6, §7, §8

E. faecalis MMX 486 VRE = test: MIC broth microdilution; format: cell-based; conditions: Enterococcus faecalis; E. faecalis MMX 486 VRE; CAMHB; read-out: MIC
Experimental: as §1, §2, §3, §4, §5, §6, §7, §8

E. faecium MMX 485 VRE = test: MIC broth microdilution; format: cell-based; conditions: Enterococcus faecium; E. faecium MMX 485 VRE; CAMHB; read-out: MIC
Experimental: as §1, §2, §3, §4, §5, §6, §7, §8

E. faecium MMX 708 VSE = test: MIC broth microdilution; format: cell-based; conditions: Enterococcus faecium, MMX708VSE; E. faecium MMX 708 VSE; CAMHB; read-out: MIC
Experimental: as §1, §2, §3, §4, §5, §6, §7, §8

[3] = tested on: S. aureus ATCC 29213 MSSA; test: MIC broth microdilution; format: cell-based; conditions: Staphylococcus aureus; S. aureus ATCC 29213 MSSA; CAMHB; read-out: MIC
Experimental: as §1, §2, §3, §4, §5, §6, §7, §8

S. aureus MMX 8088 MRSA = test: MIC broth microdilution; format: cell-based; conditions: Staphylococcus aureus; S. aureus MMX 8088 MRSA; CAMHB; read-out: MIC
Experimental: as §1, §2, §3, §4, §5, §6, §7, §8

[4] = tested on: S. pneumoniae ATCC 49619 PISP; test: MIC broth microdilution; format: cell-based; conditions: Streptococcus pneumoniae, ATCC49619, 20 h; S. pneumoniae ATCC 49619 PISP; CAMHB with 3% lysed horse blood; read-out: MIC
Experimental: as §1, §2, §3, §4, §5, §6, §7, §8

S. pyogenes ATCC 19615 = test: MIC broth microdilution; format: cell-based; conditions: Streptococcus pyogenes, ATCC19615, 20 h; S. pyogenes ATCC 19615; CAMHB with 3% lysed horse blood; read-out: MIC
Experimental: as §1, §2, §3, §4, §5, §6, §7, §8

S. aureus isolates = test: MIC broth microdilution, S. aureus isolates; format: cell-based; conditions: Staphylococcus aureus; across MSSA and MRSA isolates; read-out: MIC values against S. aureus isolates
Experimental: as §1, §2, §3, §4, §5, §6, §7, §8

[5] = Un-inoculated solubility control plate (drug precipitation); format: physicochemical; conditions: at 64 μg/mL in CAMHB

Compound	solubility at 24 h [1]	MIC (E. coli ATCC 25922)	MIC [2]	MIC (E. faecalis MMX 486 VRE)	MIC (E. faecium MMX 485 VRE)	MIC (E. faecium MMX 708 VSE)	MIC [3]	MIC (S. aureus MMX 8088 MRSA)	MIC [4]	MIC (S. pyogenes ATCC 19615)	MIC (S. aureus isolates)	Precipitation in CAMHB [5]
C=C(NC(=O)c1csc(C2=N[C@@H]3c4csc(n4)[C@H]4NC(=O)c5csc(n5)[C@H]([C@](C)(O)[C@@H](C)O)NC(=O)C5CSC(=N5)/C(=C/C)NC(=O)[C@H]([C@@H](C)O)NC(=O)c5csc(n5)[C@]3(CC2)NC(=O)[C@H](C)NC(=O)C(=C)NC(=O)[C@H](C)NC(=O)[C@H]([C@@H](C)CC)N[C@@H]2C=Cc3c([C@H](C)O)cc(nc3[C@H]2O)C(=O)O[C@@H]4C)n1)C(=O)NC(=CNC(=O)C(C)C)C(N)=O [RJS-04]	16.2 µg/mL (≈ 9.26 µM)	> 64 µg/mL	0.5 µg/mL (≈ 0.286 µM)	1 µg/mL (≈ 0.571 µM)	0.25 µg/mL (≈ 0.143 µM)	1 µg/mL (≈ 0.571 µM)	0.5 µg/mL (≈ 0.286 µM)	0.5 µg/mL (≈ 0.286 µM)	0.004 µg/mL (≈ 0.00229 µM)	0.004 µg/mL (≈ 0.00229 µM)	0.25 to 0.5 µg/mL (≈ 0.143 to 0.286 µM)	distinct precipitation
C=C(NC(=O)c1csc(C2=N[C@@H]3c4csc(n4)[C@H]4NC(=O)c5csc(n5)[C@H]([C@](C)(O)[C@@H](C)O)NC(=O)C5CSC(=N5)/C(=C/C)NC(=O)[C@H]([C@@H](C)O)NC(=O)c5csc(n5)[C@]3(CC2)NC(=O)[C@H](C)NC(=O)C(=C)NC(=O)[C@H](C)NC(=O)[C@H]([C@@H](C)CC)N[C@@H]2C=Cc3c([C@H](C)O)cc(nc3[C@H]2O)C(=O)O[C@@H]4C)n1)C(=O)NC(=CNC(=O)c1cccc(/C=N/OCCO)c1)C(N)=O [RJS-14]	1.4 µg/mL (≈ 0.748 µM)	> 64 µg/mL	0.5 µg/mL (≈ 0.267 µM)	0.5 µg/mL (≈ 0.267 µM)	0.5 µg/mL (≈ 0.267 µM)	1 µg/mL (≈ 0.534 µM)	0.5 µg/mL (≈ 0.267 µM)	0.5 µg/mL (≈ 0.267 µM)	0.004 µg/mL (≈ 0.00214 µM)	0.004 µg/mL (≈ 0.00214 µM)	0.25 to 0.5 µg/mL (≈ 0.134 to 0.267 µM)	–
